# Reference: publication PMC8272044, “5-Phenoxy Primaquine Analogs and the Tetraoxane Hybrid as Antimalarial Agents” (Molecules, 2021)
# Read-outs that look alike come from different tables or passages of the source.
# Key:
# [1] = system: P. falciparum 3D7; experiment: In vitro blood antimalarial activity, malaria SYBR green I-based fluorescence (MSF) method; assay type: cell-based; details: Plasmodium falciparum; P. falciparum 3D7, blood stage, 48 h, mean ± SD of three biological repeats
# Procedure: P. falciparum strain 3D7 (wild-type drug sensitive strain) was used in this study. This parasite was maintained continuously in vitro in human O+ erythrocytes (4% hematocrit) at 37 °C under 3% CO2 and 90% N2 in RPMI 1640 culture media (Life Technologies Limited, Paisley, UK) containing 2 mM L-Glutamine, 25 mM HEPES (Sigma), pH 7.4, 2g/L NaHCO3, 40 mg/L gentamicin, 0.37 mM hypoxanthine, and supplemented with 5 g/L Albumax I (Life Technologies, Grand Island, NY, USA). Every 3 to 4 days, the parasite culture was synchronized with 5% sorbitol and transferred into complete medium with uninfected erythrocytes. In vitro antimalarial activity was determined by using the malaria SYBR green I-based fluorescence (MSF) method. Briefly, 0.09 mL of cultured 1% ring-stage synchronized parasites and 2% hematocrit were transferred to individual wells of a standard 96-well microtiter plate and in vitro culture continued for 48 h, with 0.01 mL of compound at different concentration in each well. The compounds were first dissolved in DMSO and diluted with RPMI medium to 1% DMSO. The final concentration of DMSO in each well was 0.1%, which caused no effect on the parasite viability. Following 48 h, SYBR Green I solution (0.02 µL of 10,000X SYBR Green I/100 µL of buffer solution consisted of 20 mM Tris 20, pH 7.5, 5 mM EDTA, 0.008% w/v saponin and 0.08% v/v Triton X-100) was then added to each well, and fluorescence signals were measured by spectrofluorometer at ex485/em 535 nm. […] The result of each compound was normalized with control media for the overall background subtraction as 0% and untreated parasite with 0.1% DMSO as 100% control.
# [2] = system: hematin polymerization; experiment: Inhibition of hematin polymerization (heme polymerization assay); assay type: biochemical;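 as to %Inh1: test concentrations in µM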;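 as to %Inh2: test concentrations in µM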;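 as to %Inh3: test concentrations in µM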
# Procedure: The ability of the 5-phenoxy primaquine analogs to inhibit hematin polymerization was investigated using a protocol modified from the one described previously. […] After it was left standing for 15 min, Tween 20 (0.5 μM; Sigma) was added. […] The assay was performed in triplicate, and results were expressed as the percentage of inhibition relative to hemozoin formation in a negative control. The IC50 values were obtained from the sigmoidal dose–response curves using nonlinear regression curve fitting analyses with GraphPad Prism version 3.00 software. Each IC50 value is the result of at least three separate experiments.
# [3] = system: hematin polymerization; design: method as in PMID 10049273; details: literature value; read-out: IC50, hematin polymerization inhibition; cited from earlier work
# [4] = Cytotoxicity by sulforhodamine B (SRB) colorimetric assay; assay type: cell-based, African green monkey; details: African green monkey, Vero cells (kidney fibroblasts); Vero cells, 72 h, SRB, mean ± SD of three repeats
# Description: (§1) A cytotoxicity test of selected analogs against African green monkey kidney fibroblast (Vero cells) was obtained from Bioassay Laboratory, BIOTEC, NSTDA, Thailand. They were maintained continuously in MEM/EBSS medium (Hyclone Laboratories Inc., South Logan, UT, USA), supplemented with 10% heated fetal bovine serum (GE Healthcare, PAA Laboratories GmbH, Pasching, Austria), 2.2 g/L Sodium bicarbonate (Emsure, Merck kGaA, Darmstadt, Germany), and 1% sodium pyruvate (Sigma). […] Then, the cells were fixed with 100 µL of 10% trichloroacetic acid (Sigma) at 4 °C for 45 min, washed, and dried at room temperature overnight. […] Finally, 200 µL of 10× Tris-base was added to each well to dissolve protein-bound dye. The OD was determined at a wavelength of 510 nm. The control media was used for overall background subtraction as 0% and untreated cells as 100% control without any cytotoxic effect. The IC50 value of each compound was determined from the dose–response curve.
# [5] = system: African green monkey kidney fibroblast (Vero cells); experiment: as above; assay type: cell-based; details: Vero CC50 / P. falciparum 3D7 IC50
# Description: as §1
# [6] = pH 5.0, mean ± SD of three independent repeats, read-out: IC50, inhibition of hemozoin-initiated hematin polymerization
# [7] = primary data, repeat 1, read-out: IC50, heme polymerization inhibition, repeat 1
# [8] = primary data, repeat 2, read-out: IC50, heme polymerization inhibition, repeat 2
# [9] = primary data, repeat 3, read-out: IC50, heme polymerization inhibition, repeat 3
SMILES,IC50 [1],"%Inh1 ([2]; conc 2, repeat 1)","%Inh2 ([2]; conc 2, repeat 2)","%Inh3 ([2]; conc 2, repeat 3)","%Inh1 ([2]; conc 10, repeat 1)","%Inh2 ([2]; conc 10, repeat 2)","%Inh3 ([2]; conc 10, repeat 3)","%Inh1 ([2]; conc 50, repeat 1)","%Inh2 ([2]; conc 50, repeat 2)","%Inh3 ([2]; conc 50, repeat 3)","%Inh1 ([2]; conc 100, repeat 1)","%Inh2 ([2]; conc 100, repeat 2)","%Inh3 ([2]; conc 100, repeat 3)","%Inh1 ([2]; conc 200, repeat 1)","%Inh2 ([2]; conc 200, repeat 2)","%Inh3 ([2]; conc 200, repeat 3)","%Inh1 ([2]; conc 400, repeat 1)","%Inh2 ([2]; conc 400, repeat 2)","%Inh3 ([2]; conc 400, repeat 3)","IC50 [2, 6]",other results
"COc1cc(NC(C)CCCN)c2ncccc2c1 (stereo not shown) [PQ, primaquine bisphosphate, reference compound]",11.3 ± 0.79 µM,-2.08%,16.17%,4.69%,-9.33%,8.67%,3.70%,12.67%,-7.00%,5.24%,19.42%,22.96%,19.59%,46.18%,36.04%,39.63%,73.12%,80.96%,77.01%,320 ± 12 µM,"IC50 [2, 7]: 313 µM; IC50 [2, 8]: 310 µM; IC50 [2, 9]: 337 µM; IC50 [3]: > 2500 µM"
"COc1cc(NC(C)CCCNCCCCOc2ccc(C3CCC4(CC3)OOC3(OO4)C4CC5CC(C4)CC3C5)cc2)c2ncccc2c1Oc1ccccc1 (stereo not shown) [compound 12, N^1-(4-(4-((1r,3r,5r,7r)-Dispiro[adamantane-2,3′-[1,2,4,5]tetraoxane-6′,1″-cyclohexan]-4″-yl)phenoxy)butyl)-N^4-(6-methoxy-5-phenoxyquinolin-8-yl)pentane-1,4-diamine]",0.38 ± 0.11 µM,12.59%,16.51%,8.88%,19.10%,21.09%,14.14%,48.21%,49.80%,51.14%,82.20%,73.34%,64.09%,90.25%,95.79%,87.78%,106.35%,95.69%,97.20%,66.9 ± 3.5 µM,"IC50 [2, 7]: 64.5 µM; IC50 [2, 8]: 64.3 µM; IC50 [2, 9]: 71.8 µM; CC50 at 72 h [4]: 17.3 ± 0.36 µM; SI, selectivity index = CC50 on Vero cells / IC50 in the blood stage [5]: 45.61"
